Measured values as given in ChEMBL document CHEMBL3046656, “Apoptotic effects of some carbazole derivatives on lung carcinoma and glioma cell lines” (Med Chem Res, 2013).
Values after ≈ are worked out from the molar mass of the structure shown. Active and inactive are the calls of the source. No cut-off for these calls is given here.

Experiments:
[1] = test system: C6; test: Induction of necrosis in Rattus norvegicus (rat) C6 cells at IC50 after 24 hr by annexin V FITC/propidium iodide staining-based FACS flow cytometric analysis relative to untreated control; type: functional
[2] = test system: C6; test: Inhibition of nuclear DNA synthesis in Rattus norvegicus (rat) C6 cells assessed as decrease in bromodeoxyuridine incorporation measured during S phase at 15.6 to 31.2 ug/mL after 24 hr by ELISA; type: functional
[3] = test system: A549; test: Induction of apoptosis in Homo sapiens (human) A549 cells assessed as early apoptotic cells at IC50 after 24 hr by annexin V FITC/propidium iodide staining-based FACS flow cytometric analysis (reference value: 0.5%); type: functional
[4] = test system: A549; test: Induction of necrosis in Homo sapiens (human) A549 cells at IC50 after 24 hr by annexin V FITC/propidium iodide staining-based FACS flow cytometric analysis relative to untreated control; type: functional
[5] = test system: C6; test: Induction of apoptosis in Rattus norvegicus (rat) C6 cells assessed as late apoptotic cells at IC50 after 24 hr by annexin V FITC/propidium iodide staining-based FACS flow cytometric analysis (reference value: 1.1%); type: functional
[6] = test system: A549; test: Induction of apoptosis in Homo sapiens (human) A549 cells assessed as late apoptotic cells at IC50 after 24 hr by annexin V FITC/propidium iodide staining-based FACS flow cytometric analysis (reference value: 0.4%); type: functional
[7] = test system: C6; test: Induction of apoptosis in Rattus norvegicus (rat) C6 cells assessed as early apoptotic cells at IC50 after 24 hr by annexin V FITC/propidium iodide staining-based FACS flow cytometric analysis (reference value: 0.5%); type: functional
[8] = test system: C6; test: Inhibition of nuclear DNA synthesis in Rattus norvegicus (rat) C6 cells assessed as decrease in bromodeoxyuridine incorporation measured during S phase after 24 hr by ELISA; type: functional, cell-based
[9] = test system: A549; test: Induction of apoptosis in Homo sapiens (human) A549 cells assessed as viable cells at IC50 after 24 hr by annexin V FITC/propidium iodide staining-based FACS flow cytometric analysis (reference value: 96.5%); type: functional
[10] = molecular target: Acetylcholinesterase (Electrophorus electricus) (UniProt O42275); test: Inhibition of Electrophorus electricus (electric eel) AChE using acetylthiocholine iodide as substrate at 80 ug/mL incubated for 15 min prior to substrate addition measured after 30 min by Ellman's spectrophotometric method relative to control
Acetylcholinesterase (Electrophorus electricus), sequence (O42275 24-633 limits assumed): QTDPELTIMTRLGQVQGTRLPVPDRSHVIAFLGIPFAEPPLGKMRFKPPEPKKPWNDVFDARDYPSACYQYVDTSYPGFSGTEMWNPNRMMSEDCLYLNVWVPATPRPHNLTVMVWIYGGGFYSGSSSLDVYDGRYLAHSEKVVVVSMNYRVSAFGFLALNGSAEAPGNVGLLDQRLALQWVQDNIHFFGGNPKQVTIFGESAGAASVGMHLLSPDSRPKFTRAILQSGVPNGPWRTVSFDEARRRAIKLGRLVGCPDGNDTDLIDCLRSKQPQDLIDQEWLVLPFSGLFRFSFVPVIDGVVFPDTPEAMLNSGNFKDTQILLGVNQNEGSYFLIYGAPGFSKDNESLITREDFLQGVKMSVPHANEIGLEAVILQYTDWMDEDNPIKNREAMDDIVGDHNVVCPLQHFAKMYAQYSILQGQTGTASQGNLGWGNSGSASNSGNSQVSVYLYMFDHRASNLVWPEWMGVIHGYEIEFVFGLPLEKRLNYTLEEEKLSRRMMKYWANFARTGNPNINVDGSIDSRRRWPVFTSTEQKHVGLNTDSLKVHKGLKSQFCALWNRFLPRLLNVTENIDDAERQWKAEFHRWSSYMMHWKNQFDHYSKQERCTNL

[11] = test system: C6; test: Cytotoxicity against Rattus norvegicus (rat) C6 cells after 24 hr by MTT assay; type: functional, cell-based; conditions: C6, 24 h
[12] = test system: A549; test: Inhibition of nuclear DNA synthesis in Homo sapiens (human) A549 cells assessed as decrease in bromodeoxyuridine incorporation measured during S phase after 24 hr by ELISA; type: functional, cell-based
[13] = test system: A549; test: Inhibition of nuclear DNA synthesis in Homo sapiens (human) A549 cells assessed as decrease in bromodeoxyuridine incorporation measured during S phase at 15.6 to 62.5 ug/mL after 24 hr by ELISA; type: functional
[14] = test system: C6; test: Induction of apoptosis in Rattus norvegicus (rat) C6 cells assessed as viable cells at IC50 after 24 hr by annexin V FITC/propidium iodide staining-based FACS flow cytometric analysis (reference value: 96.4%); type: functional
[15] = test system: NIH3T3; test: Cytotoxicity against Mus musculus (mouse) NIH/3T3 cells after 24 hr by MTT assay; type: cell-based; conditions: NIH3T3, 24 h
[16] = test system: A549; test: Cytotoxicity against Homo sapiens (human) A549 cells after 24 hr by MTT assay; type: functional, cell-based; conditions: A549, 24 h
[17] = molecular target: Acetylcholinesterase (Electrophorus electricus, UniProt O42275); test: Inhibition of Electrophorus electricus (electric eel) AChE using acetylthiocholine iodide as substrate incubated for 15 min prior to substrate addition measured after 30 min by Ellman's spectrophotometric method
Acetylcholinesterase, sequence (O42275 whole entry): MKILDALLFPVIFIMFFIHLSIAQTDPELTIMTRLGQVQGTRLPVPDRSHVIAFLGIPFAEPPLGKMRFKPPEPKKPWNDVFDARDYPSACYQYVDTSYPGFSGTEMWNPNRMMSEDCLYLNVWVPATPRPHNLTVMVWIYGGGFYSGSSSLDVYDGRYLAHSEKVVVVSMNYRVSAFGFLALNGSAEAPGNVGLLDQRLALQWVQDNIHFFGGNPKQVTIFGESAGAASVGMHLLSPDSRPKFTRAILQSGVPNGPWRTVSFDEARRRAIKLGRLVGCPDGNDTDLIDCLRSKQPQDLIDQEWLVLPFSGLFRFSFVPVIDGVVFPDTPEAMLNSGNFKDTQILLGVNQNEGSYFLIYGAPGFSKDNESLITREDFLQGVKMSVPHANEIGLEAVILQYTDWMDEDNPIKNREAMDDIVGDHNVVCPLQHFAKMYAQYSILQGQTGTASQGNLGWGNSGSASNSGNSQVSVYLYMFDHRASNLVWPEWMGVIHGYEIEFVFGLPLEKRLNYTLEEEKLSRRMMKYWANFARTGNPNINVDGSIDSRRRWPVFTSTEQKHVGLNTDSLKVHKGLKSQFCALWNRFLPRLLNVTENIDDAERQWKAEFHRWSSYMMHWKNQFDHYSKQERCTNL

[18] = test system: A549; test: Inhibition of nuclear DNA synthesis in Homo sapiens (human) A549 cells assessed as decrease in bromodeoxyuridine incorporation measured during S phase at IC50 after 24 hr by ELISA; type: functional
[19] = test system: C6; test: Inhibition of nuclear DNA synthesis in Rattus norvegicus (rat) C6 cells assessed as decrease in bromodeoxyuridine incorporation measured during S phase at IC50 after 24 hr by ELISA; type: functional
[20] = test system: C6; test: Inhibition of nuclear DNA synthesis in Rattus norvegicus (rat) C6 cells assessed as decrease in bromodeoxyuridine incorporation measured during S phase at 3.9 to 7.8 ug/mL after 24 hr by ELISA; type: functional

Structure (SMILES)	inhibition [8]	inhibition [10] [%]	IC50 [11] [µg/mL]	inhibition [12]	IC50 [15] [µg/mL]	IC50 [16] [µg/mL]	IC50 [17] [µM]	inhibition [13]	further results
CCn1c2ccccc2c2cc(NC(=O)CSC(=S)N3CCN(C)CC3)ccc21	Dose-dependent effect	21.1	21.3 (≈ 49.9 µM)	Dose-dependent effect	48.7 (≈ 114 µM)	34.3 (≈ 80.4 µM)	> 188	–	Activity [1]: 0%; inhibition (INH) [2]: 45.5%; Activity [3]: 1.8%; Activity [4]: 3.3%; Activity [5]: 8.8%; Activity [6]: 0.4%; Activity [7]: 7.3%; Activity [9]: 94.5%; inhibition (INH) [13]: 46.6%; Activity [14]: 82.3%
O=C1c2c(O)ccc(O)c2C(=O)c2c(NCCNCCO)ccc(NCCNCCO)c21 [MITOXANTRONE]	Dose-dependent effect	–	10.9 (≈ 24.5 µM)	Dose-dependent effect	–	25.3 (≈ 56.9 µM)	–	–	inhibition (INH) [18]: 67.3%; inhibition (INH) [19]: 84.6%
CCn1c2ccccc2c2cc(NC(=O)CSC(=S)N3CCN(c4ccccc4)CC3)ccc21	Dose-dependent effect	26.6	143 (≈ 293 µM)	Dose-dependent effect	357 (≈ 730 µM)	193 (≈ 395 µM)	> 164	Active	–
CCN(CC)C(=S)SCC(=O)Nc1ccc2c(c1)c1ccccc1n2CC	Dose-dependent effect	18.3	64.3 (≈ 161 µM)	Dose-dependent effect	390 (≈ 976 µM)	41.7 (≈ 104 µM)	> 200	Active	–
CCn1c2ccccc2c2cc(NC(=O)CSC(=S)N3CCCCC3)ccc21	Dose-dependent effect	11.3	198 (≈ 482 µM)	Dose-dependent effect	393 (≈ 956 µM)	177 (≈ 429 µM)	> 194	Active	–
CCn1c2ccccc2c2cc(NC(=O)CSC(=S)N3CCN(CCN(C)C)CC3)ccc21	Dose-dependent effect	91.3	5.9 (≈ 12.2 µM)	Dose-dependent effect	44.3 (≈ 91.6 µM)	41 (≈ 84.8 µM)	15.5	–	Activity [1]: 0.2%; Activity [3]: 10.3%; Activity [4]: 16.6%; Activity [5]: 11.5%; Activity [6]: 8.1%; Activity [7]: 83.7%; Activity [9]: 65%; inhibition (INH) [20]: 87.1%; inhibition (INH) [13]: 53.4%; Activity [14]: 4.7%
CCn1c2ccccc2c2cc(NC(=O)CSC(=S)N3CCN(Cc4ccccc4)CC3)ccc21	Dose-dependent effect	12.8	170 (≈ 338 µM)	Dose-dependent effect	110 (≈ 218 µM)	107 (≈ 212 µM)	> 159	Active	–
CCN1CCN(C(=S)SCC(=O)Nc2ccc3c(c2)c2ccccc2n3CC)CC1	Dose-dependent effect	19.6	20 (≈ 45.4 µM)	Dose-dependent effect	< 3.9	61.7 (≈ 140 µM)	> 182	Active	–
CCn1c2ccccc2c2cc(NC(=O)CSC(=S)N3CCCCC3C)ccc21 (stereo unspecified)	Dose-dependent effect	18	26.7 (≈ 62.7 µM)	Dose-dependent effect	257 (≈ 603 µM)	29.3 (≈ 68.8 µM)	> 188	–	Activity [1]: 0.3%; inhibition (INH) [2]: 48.3%; Activity [3]: 2.8%; Activity [4]: 2.9%; Activity [5]: 5.1%; Activity [6]: 1%; Activity [7]: 6.2%; Activity [9]: 93.3%; inhibition (INH) [13]: 71.2%; Activity [14]: 88.3%
CCn1c2ccccc2c2cc(NC(=O)CSC(=S)N3CCCC3)ccc21	Dose-dependent effect	9.05	75 (≈ 189 µM)	Dose-dependent effect	270 (≈ 679 µM)	193 (≈ 486 µM)	> 201	Active	–
CCn1c2ccccc2c2cc(NC(=O)CSC(=S)N3CCOCC3)ccc21	Dose-dependent effect	15.4	180 (≈ 435 µM)	Dose-dependent effect	127 (≈ 306 µM)	25.7 (≈ 62.1 µM)	> 193	Active	–
CCn1c2ccccc2c2cc(NC(=O)CSC(=S)N3CCC(C)CC3)ccc21	Dose-dependent effect	23.6	167 (≈ 392 µM)	Dose-dependent effect	> 500	313 (≈ 736 µM)	> 188	Active	–
